Assay results reported in patent US5002958A, “Hypotensive agent” (priority 1987, dated 1991).
Where a name gives a salt, the structure may show the parent alone.

Tests used:
[1] = tested on: dogs suffering from Goldblatt hypertension; assay: Effect of single oral administration on blood pressure of dogs suffering from Goldblatt hypertension; type: in vivo, Female beagles; conditions: 10 mg/kg oral; for reduction in the blood pressure / blood pressure after 3 h: once, after 3 h; for reduction in the blood pressure: result in words; for blood pressure after 3 h / blood pressure before administration: systolic pressure; for blood pressure after 3 h: control group 201±3 mmHg, unchanged after 5 h; for blood pressure before administration: artery of the tail
Experimental: Nicardipine hydrochloride was used as a control. The dose was 5 ml/kg.

[2] = Acute toxicity (LD50) in mice; conditions: mouse, in vivo, Mice (ICR)
[3] = Acute toxicity (LD50) in rats; conditions: rat, in vivo, Rats (SD)
[4] = Acute toxicity (LD50) in dogs; conditions: dog, in vivo, po, Dogs (Beagles)
[5] = Solubility (physico-chemical properties); type: physicochemical
[6] = tested on: dogs suffering from Goldblatt hypertension; conditions: 10 mg/kg oral
Experimental: Nicardipine hydrochloride was used as a control. The dose was 5 ml/kg. Commercially available tablets were given as they were by oral administration. Female beagles suffering from Goldblatt hypertension of "one clip one kidney" type were used. […] The blood pressure and heart rate were measured in the artery of the tail of each dog in a closed manner with a device for continuously measuring the systolic pressure (SCS-301; a product of Shimadzu Seisakusho Ltd.). […] The effects of eperisone hydrochloride given once by oral administration on the blood pressure and heart beat were compared with those of nicardipine hydrochloride. The nine beagles were divided into three groups, i.e. a control group, a group to which 10 mg/kg of eperisone hydrochloride was given and another group to which 10 mg/kg of nicardipine hydrochloride was given. Nine beagles were subjected to the tests of all three groups. Namely, administration was discontinued at intervals of one week according to Latin square. The blood pressure and heart rate were measured before administration and then at specified intervals from one hour to five hours after administration. The analysis of variance was conducted by the time series analysis. The test groups were compared with the control group by Dunnet's method.

SMILES | reduction in the blood pressure [1] | blood pressure after 3 h [1] | blood pressure before administration [1] | LD50 ([2]; iv, female) | LD50 ([2]; iv, male) | LD50 ([2]; po, female) | LD50 ([2]; po, male) | LD50 ([3]; iv, female) | LD50 ([3]; iv, male) | LD50 ([3]; po, female) | LD50 ([3]; po, male) | LD50 ([4]; female) | LD50 ([4]; male) | solubility in acetic anhydride ([5]; acetic anhydride) | solubility in acetone ([5]; acetone) | solubility in ethanol ([5]; ethanol) | solubility in ether ([5]; ether) | solubility in water, methanol, chloroform or glacial acetic acid ([5]; water, methanol, chloroform or glacial acetic acid) | solubility in water ([5]; water, agents used in the pharmacological experiment) | heart rate before administration [6]
CCc1ccc(C(=O)C(C)CN2CCCCC2)cc1 (stereo not drawn) [eperisone hydrochloride, Eperisone hydrochloride] | a significant reduction in the blood pressure was observed | 172±3 mmHg | 202±4 mmHg | 43.5 mg/kg | 43 mg/kg | 940 mg/kg | 1040 mg/kg | 60 mg/kg | 51 mg/kg | 1300 mg/kg | 1300 mg/kg | > 750 mg/kg | > 1080 mg/kg | relatively difficultly soluble | difficultly soluble | relatively easily soluble | scarcely soluble | easily soluble | water-soluble | 97±5 beats/min
COC(=O)C1=C(C)NC(C)=C(C(=O)OCCN(C)Cc2ccccc2)C1c1cccc([N+](=O)[O-])c1 (stereo not drawn) [nicardipine hydrochloride, Nicardipine hydrochloride, reference compound] | a significant reduction in the blood pressure was also observed | 164±4 mmHg | 200±4 mmHg | – | – | – | – | – | – | – | – | – | – | – | – | – | – | – | – | 106±7 beats/min
